Measurements: US4120951A, “Polypeptide hormones of the thymus” (Sloan-Kettering Institute for Cancer Research, priority 1977, dated 1978)
Ends that are not written are not given here.

How the values were obtained:
[1] = system: neuromuscular transmission; test: Electromyographic assay of neuromuscular transmission in mice after intraperitoneal injection; type: in vivo; conditions: for activity of the isolated fraction in producing neuromuscular block: QAE-Sephadex fractions, FIG. 3; for therapeutically effective amount: at least about; for dose producing a statistically significant (P < 0.001) decrement in the electromyographic response: 5 days after dose, supramaximal nerve stimulation 50 impulses per second; for mean decrement: height of tenth muscle action potential as % of the first: 5 days after doses above threshold, controls 94 ± 2%; for dose range at which active: test not stated
Protocol: To determine the neuromuscular action of Thymin I and Thymin II, the electromyographic response of mice 5 days after various doses of Thymin I or Thymin II is summarized in FIG. 4. Bovine serum albumin (0.5 mg/ml, 0.9% saline) was used as a protein stabilizer and controls were injected with the solvent alone.
In 15 control mice sampled at 75 sites the height of the tenth muscle action potential was 94 ± 2% (mean ± s.e.m.) of the height of the first. The mean values and s.e.m. (vertical bars) are shown for groups of 4-10 mice given various doses of Thymin I(o) and Thymin II (.quadrature.). Statistical significances of differences from the controls were calculated by Student's t-test and are shown by solid symbols (P < 0.001 ), half solid symbols (0.05 > P < 0.001) and open symbols (P > 0.05).
Mice were given 100 ng of Thymin I or solvent and five mice from each group were tested at various times. With supramaximal nerve stimulation at 50 impulses per second the height of the tenth muscle action potential was expressed as a percentage of the first. This change was calculated for five points in each of five to ten mice from each group. For each time point the change in Thymin-treated mice was expressed as a percentage of the change in solvent-treated control mice and the statistical significance of the difference was assessed by Student's t-test. A statistically significant (P < 0.001) abnormality in the electromyogram was first evident at 18 hours, was maximal at 24 hours and persisted through 5 days.
To make the determinations described in FIGS. 4 and 5, extracts were injected into test animals and neuromuscular transmission was studied after an interval of one to five days. Initial 100 g guinea pigs were injected intraperitoneally; neuromuscular transmission was studied in vitro with a preparation of the phrenic nerve and hemidiaphragm. Subsequently, 200 g rats were used; fractions were injected subcutaneously and neuromuscular transmission was assessed electromyographically. […] Female Swiss-Webster mice weighing 25-35 g were injected intraperitoneally, groups of five to ten mice being used to test each fraction. The animals were anesthetized with urethane and electromyography was performed as described. The muscle action potentials were recorded in each mouse following supramaximal nerve stimulation with 10 impulses at a rate of 50 per second. Five sites were sampled in each mouse and for each group of mice the mean standard deviation and s.e.m. were calculated for the change in the height of the muscle action, potential being expressed as a percentage of the height of the first impulse.
The statistical significance of differences found were assessed by student's t-test.

mouse bone marrow cells = test: Cytotoxic inhibition test for induction of TL and Thy-1 antigens; type: cell-based; conditions: for absorption of antibodies directed against TL or Thy-1 by treated cells: unfractionated bone marrow cells, 100 ng/ml, 18 hours
Protocol: Thymin I and Thymin II were isolated from bovine thymus as described. Each was dissolved in phosphate buffered saline (containing 1 mg/ml of bovine serum albumen to minimize adsorbtive losses), distributed into 2 μg lots and lyophilized. Each polypeptide was reconstituted in tissue culture medium at the desired concentrations just prior to use.
(§1) Bone marrow cells were obtained from the femoral marrow. Both spleen and marrow cells were teased into single cell suspensions and washed three times in RPMI 1640 medium supplemented with 10 mM Hepes and 100 U/ml of penicillin and 100 μg/ml of streptomycin. The cells were then suspended in the same medium with 10% bovine serum at a concentration of 5.0×10^6 cells/ml. One milliliter of this suspension was incubated with an appropriate dilution of thymin in 16 mm plastic petrie dishes in a humidified atmosphere containing 5% CO2 in air. At the end of the incubation the cells were washed twice and held at 4° C. at a concentration of 5.0×10^6 cells/ml in culture medium until tested for the presence of TL or Thy-1(0).
ASL-1, a TL positive, Thy 1-2 (0-C3H) positive lymphoma of A strain mice was used as the target cell in all titrations of the antisera used in these experiments, and in the cytotoxic inhibition test to be described below. The lymophoma was maintained by weekly intraperitoneal passage in A/J mice. Lymphoma cells were labelled with Cr^51 and used as target cells in the cytotoxic inhibition test.
Antisera to either TL or Thy-1 (0) were titered to determine the quantity of antibody which was required to kill 50% of the target cells in a standard suspension. The appropriate amount of antiserum was added to each well of a microtiter plate with various dilutions of the cells being tested for their antigen content. The total volume was 0.15 ml. Cells expressing the antigen against which the antiserum was directed absorbed varying amounts of the antibody, and rendered less available to react with the Cr^51 labelled target cells which were added subsequently. The concentration of antibody used was extremely critical to the sensitivity of the test. The antisera to TL or Thy-1 (0) and the cells being tested for their antigen content were incubated together at 4° C. for 90 minutes. After this incubation 50,000 target cells in a volume of […] were added and the incubation continued in the cold for an additional 30 minutes to permit the sensitization of the target cells by the remaining unabsorbed antibody. The plates were then centrifuged at 1,500 rpm for 10 minutes and the supernatant fluid removed. The pelleted cells were resuspended in 0.1 ml or RPMI 1640, containing 4% fresh rabbit serum as a source of complement, and incubated for 45 minutes at 37° C. The cells were then repelleted by centrifugation and a 0.075 ml aliquot of the supernatant fluid was counted in an automatic gamma spectrometer to determine the amount of Cr^51 released from the target cells. All assays were performed in duplicate and the results were expressed by calculating the number of cells required to reduce the relative cytotoxic index (RCI) to 0.5. The RCI was calculated as follows: [formula]

bone marrow cells = test: Direct cytotoxic test (trypan blue) for TL induction, bone marrow cells; type: cell-based, mouse
Protocol: as §1
(§2) Bone marrow and spleen cells were obtained by flotation in BSA gradients similar to those used by Komuro and Boyse (Lancet, 10, 39, 1964). These cells were tested for their susceptibility to anti TL and Thy-1(0) antibodies in a direct cytotoxicity test, using the uptake of trypan blue as a measure of cell death.
(§3) The actual number of cells induced could not be determined in the cytotoxic inhibition assay since this test is a measure of the total antigen present in the culture. […] However, unless sufficient numbers of such cells are present they cannot be detected because of a substantial background usually found in such tests. […]

spleen cells = test: Direct cytotoxic test (trypan blue) for TL induction, spleen cells; type: cell-based, mouse; conditions: 20 ng/ml, 2 hours, least dense BSA gradient fraction
Protocol: as §1, §2, §3

[2] = single injection of 100 ng, mice

Sequence | activity of the isolated fraction in producing neuromuscular block [1] | therapeutically effective amount [1] | dose producing a statistically significant (P < 0.001) decrement in the electromyographic response ([1]; mice) | mean decrement: height of tenth muscle action potential as % of the first ([1]; mice) [%] | dose range at which active [1] | concentration of maximal activity (mouse bone marrow cells) | lowest concentration at which active (mouse bone marrow cells) [picogram per mll] | absorption of antibodies directed against TL or Thy-1 by treated cells (mouse bone marrow cells) | relative activity on neuromuscular transmission ([1]; compared with Thymin II) | time at which the electromyogram abnormality was maximal [1, 2] [h] | time through which the electromyogram abnormality persisted [1, 2] [days] | time at which the electromyogram abnormality was first evident ([1]; single injection of 100 ng, mice, P < 0.001) [h] | concentration giving maximal induction of TL and Thy-1 antigens (mouse bone marrow cells; bone marrow cells) [ng/mL] | lowest concentration producing a measurable response (induction of TL and Thy-1 antigens) (mouse bone marrow cells; bone marrow cells) [pg/mL] | relative potency in inducing TL and Thy-1 antigens (mouse bone marrow cells; compared with Thymin II) | bone marrow cells killed by anti TL antiserum plus complement (bone marrow cells; 20 ng/ml, 2 hours, least dense BSA gradient fraction) [%] | highest value of cells killed by anti TL antiserum plus complement (bone marrow cells; other experiments, tissue not stated) [%] | spleen cells killed by anti TL antiserum plus complement (spleen cells) [%]
SQFLEDPSVLTKEKLKSELVANNVTLPAGEQRKDVYVQLYLQTLTAVKR [Thymin II, H2 n--ser--gln--phe--leu--glu--asp--pro--ser--val--leu--thr--lys--glu--lys--leu--lys--ser--glu--leu--val--ala--asn--asn--val--thr--leu--pro--ala--gly--glu--gln--arg--lys--asp--val--tyr--val--gln--leu--tyr--leu--gln--thr--leu--thr--ala--val--lys--arg--cooh] | active | at least 1.3 μg/kg of body weight | above 32 ng/mouse | 82 | about 0.1 mg/kg of body weight | 0.2-2 nanogram per mll | 20 | absorbed antibodies | – | – | – | – | – | – | – | – | – | –
GQFLEDPSVLTKEKLKSELVANNVTLPAGEQRKDVYVQLYLQHLTAVKR [Thymin I, H2 n--gly--gln--phe--leu--glu--asp--pro--ser--val--leu--thr--lys--glu--lys--leu--lys--ser--glu--leu--val--ala--asn--asn--val--thr--leu--pro--ala--gly--glu--gln--arg--lys--asp--val--tyr--val--gln--leu--tyr--leu--gln--his--leu--thr--ala--val--lys--arg--cooh] | active | at least 0.20 μg/kg of body weight | above 4 ng/mouse | 84 | about 0.1 mg/kg of body weight | 0.2-2 nanogram per mll | 20 | absorbed antibodies | slightly more active | 24 | 5 | 18 | 2 | 20 | slightly more potent | 21 | ≤ 28 | 18
